According to patent US20060211744A1, “3-Pyridinecarboxamide reduces nerve degeneration” (Children's Medical Center, priority 2005, published 2006):
Like-named read-outs stand apart in the source and are kept apart here.

Tests used:
[1] = test system: SOD1-G93A transgenic mice; type: in vivo; conditions: for reduction of neural degeneration in ALS mice, behavioral testing: subcutaneous, daily from 10 weeks from birth
[2] = test system: transected axons from cultured dorsal root ganglia (DRG); assay: HPLC measurement of NAD and ATP levels in degenerating axons of cultured DRG; type: cell-based
Procedure: As a first step in examining the role of NAD in Wallerian degeneration, we used an ultra-sensitive high-performance liquid chromatography (HPLC) method (Micheli and Sestini, 1997) to measure the concentration of NAD and its derivatives in degenerating axons. To do this, the acidic lysates were prepared from axonal segments collected at different time points after transecting the axons from cultured dorsal root ganglia (DRG) and resolved by reverse-phase chromatography. 2 hr after axotomy, when the transected axons were still morphologically indistinguishable from their uncut controls, NAD levels began to decrease. This NAD decrease continued over the course of degeneration, reaching about 50% at 4 hr post-axotomy, to almost undetectable levels by 6 hr after axotomy, when early morphological signs of degeneration began to develop. […] By a similar approach of alkaline extraction (Micheli and Sestini, 1997), it has been difficult for us to detect NADH in the axonal extracts, presumably due to the low abundance of NADH and the high NAD/NADH ratio reported in mammalian cells (Zhang et al., 2002, Kasischke et al., 2004, Kannurpatti et al., 2004).
In addition to acting as co-factors for Sirt1 and other NAD-dependent enzymes, NAD is also essential for ATP-synthesizing redox reactions which are involved in glycolysis and oxidative phosphorylation (Shibata et al., 1991). […]

[3] = test system: experimental autoimmune encephalomyelitis (EAE) mice; type: in vivo
From the text: EAE is an inflammatory, demyelinating disease that can be induced by immunizing animals against myelin antigens, and is an accepted animal model for multiple sclerosis (MS) as it has similarities based on both the histopathology and the clinical course of the affected animals. In methods adapted from Lo et al. (J Neurophysiol. 2003 November;90(5):3566-71) we examine the effect of nicotinamide on axonal degeneration within the dorsal columns (cuneate fasciculus) and dorsal corticospinal tracts of the spinal cord.
Induction of EAE. Experiments are carried out in accordance with National Institutes of Health guidelines for the use of laboratory animals. C57/BL6 mice 6-10 wk of age are injected subcutaneously with 200 μl of an emulsion of 300 μg of rat myelin oligodendrocyte glycoprotein (MOG) 35-55 peptide (Keck Biotechnology Center, Yale University) in incomplete Freund's adjuvant (IFA, Sigma, St. Louis, Mo.) supplemented with 250-500 μg of Mycobacterium tuberculosis H37Ra (Difco, Detroit, Mich.). The MOG injection, with mycobacterium supplemented IFA, is repeated in the opposite flank 1 wk later. The mice also receive an injection of 250-500 ng pertussis toxin (Sigma) in 200 μl PBS ip immediately after the first immunization with MOG and then again 48 h later.
Nicotinamide treatment. Beginning on day 10 after the initial MOG injection, control and EAE-induced mice are fed pelleted mice chow incorporating nicotinamide (Sigma) to achieve an average daily consumption of 500 mg/kg nicotinamide. A separate group of EAE mice are fed the identical standard mice chow not containing nicotinamide. Serum nicotinamide levels are measured by HPLC (Chatzimichalakis et al, J Sep Sci. (2004) 27:1181-8) from two mice in each group on day 14 and on the day of either perfusion (days 27-28) or electrophysiological study (days 24-30).
Mice are observed daily for clinical signs and scored on a 0-6 scale, with 0.5 gradations for intermediate scores, as follows: 0, normal without clinical signs; 1, flaccid tail; 2, abnormal righting reflex; 3, partial hindlimb paralysis; 4, complete hindlimb paralysis; 5, moribund; and 6, death.
Electrophysiological recordings. Fourteen adult male C57/BL6 mice are used for assessing spinal cord conduction. Untreated EAE (n=6) and nicotinamide-treated EAE (n=4) mice are studied between days 24 and 30 and age-matched nicotinamide-treated mice (n=4) are used as controls. Mice are anesthetized with halothane, and deep anesthesia is maintained with 1.1% halothane through a tracheal cannula by artificial ventilation (75-80 strokes/min, 0.7 ml/stroke) and verified by the absence of a withdrawal reflex to noxious peripheral pinch. Heartbeats (˜360 beats/min) and body temperature are carefully monitored. Mice are fixed in a stereotaxic apparatus (Kopf Instruments). A midline incision is made through the skin, a laminectomy is performed, and the dura is carefully cut to expose the lower thoracic and lumbar spinal cord regions. Silver wire electrodes (0.01-in diam, A-M Systems) insulated except at the tips are used for stimulation of dorsal column axons at L4-5 and recording of compound action potentials (CAP) at T11-12. Using stereotaxic measurements, the electrodes are positioned 8 mm apart at the surface of the midline spinal cord. Pancuronium bromide (0.3 mg/kg, Sigma) is injected ip to prevent further muscular contractions throughout the experiment. The signal from the recording electrode is amplified with filters set at 300-3,000 Hz (Dam 80, WPI) and collected (CED 1401, Cambridge Electronic Design), and a computer is used for data analysis (Spike 2 program, Cambridge Electronic Design). Single-current pulses (0.05 ms) are applied through a stimulus isolation unit (A365, WPI, and Master-8, AMPI) in increments (0.2, 0.3, 0.6, 0.8, and 1 mA). The amplitude of CAP is calculated as the value between the positive and negative peaks of the biphasic wave. […]

[4] = SOD1-G93A, nicotinamide diet from 7 wk of age
[5] = nicotinamide-treated EAE, days 24-30

## NC(=O)c1cccnc1 [nicotinamide, 3-pyridinecarboxamide]
[1]; SOD1-G93A, both normal diet and nicotinamide diet
  age at bilateral hindlimb paralysis: 127-157 days of age
[1]; SOD1-G93A, nicotinamide diet
  age through to which walking capacity is improved (grid walking test): 124 days of age
[1]; SOD1-G93A, nicotinamide diet (control diet onset 108 days)
  age through to which motor functions are preserved (Rotarod): 120 days of age
[1]; [4]
  onset of impairment in balance, coordination and muscle strength (Rotarod): significantly delays the onset of impairment
  walking capacity (grid walking test): significantly improves walking capacity
[1]; mouse, in vivo
  Rotarod performance score (latency): 180 s
  body condition scoring (BCS): 3
  foot miss scores (grid walking test): 0
  general health and neurologic status (lacrimation/salivation, eye blink, ear twitch, pupillary response, whisker orienting reflex): no obvious differences
[1]; 125 mg/kg
  reduction of neural degeneration in ALS mice, behavioral testing: efficacy
[1]; 500 mg/kg
  reduction of neural degeneration in ALS mice, behavioral testing: efficacy
[2]; exogenously applied
  axonal NAD levels after transection (HPLC): delayed the decrease of axonal NAD levels
[2]; exogenously provided
  ATP levels in transected axons separated from their somas: delayed the decrease of ATP levels
[3]; EAE mice, 27-28 days
  effect on dorsal corticospinal column and dorsal column (cuneate fasciculus) axons: significant protective effect
[3]; EAE mice, chow 500 mg/kg daily from day 10
  clinical course versus untreated EAE mice: less severe clinical course
[3]; EAE mice, chow 500 mg/kg daily from day 10, day 27-28 (untreated EAE 3-4)
  clinical score (0-6 scale): 1-2
[3]; mouse, in vivo
  clinical signs in nicotinamide-treated control mice: do not display any pathological clinical signs
  difference in density of neurofilament-labeled axons, untreated versus nicotinamide-treated controls: not significant
[3]; [5]
  average CAP amplitude and area versus nicotinamide-treated control group: not significantly different
  conduction velocity: maintained close to normal levels
